# Where “and” joins values, the source holds several entries; their conditions need not be identical. Equal values may be shown once. Entries after “also recorded” stand apart in the source; their conditions may differ.
# Test: Phase 1 single-ascending dose (Part 1): safety and tolerability in healthy adults
# Format: in vivo, human
# Protocol: This ongoing trial is a Phase 1 randomized, double-blind, placebo-controlled study in male and female healthy adult volunteers aged 18-55 years. All volunteers provided written, informed consent.
# All volunteers were followed up for 4 weeks and safety and tolerability were continuously assessed throughout the study. All adverse events (AEs) were recorded from the time of consent to the completion visit and were graded using the DAIDS toxicity grading scale. Volunteers also underwent physical examinations, electrocardiograms, vital sign checks and clinical laboratory parameters (chemistry, haematology, urinalysis).
compound,measurement,setting,value
CCCCOc1nc(N)c2[nH]cc(Cc3ccc(CN4CCCC4)cc3)c2n1 [Compound 4],vital signs: Supine SBP (mmHg) Grade 1,single dose 1.25 mg fed,0 n (%)
same,vital signs: Supine SBP (mmHg) Grade 2,single dose 1.25 mg fed,0 n (%)
same,vital signs: Supine SBP (mmHg) Low,single dose 1.25 mg fed,0 n (%)
same,vital signs: Supine pulse (bpm) Low,single dose 1.25 mg fed,0 n (%)
same,↑ AST Grade 3 (laboratory abnormality),single dose 1.25 mg fed,0 n (%)
same,↑ Amylase Grade 2 (laboratory abnormality),single dose 1.25 mg fed,0 n (%)
same,↑ Cholesterol Grade 2 (laboratory abnormality),single dose 1.25 mg fed,1 (14) n (%)
same,↑ Creatine kinase Grade 2 (laboratory abnormality),single dose 1.25 mg fed,0 n (%)
same,↑ Creatine kinase Grade 4 (laboratory abnormality),single dose 1.25 mg fed,0 n (%)
same,↑ Glucose Grade 2 (laboratory abnormality),single dose 1.25 mg fed,0 n (%)
same,↑ LDL cholesterol Grade 2 (laboratory abnormality),single dose 1.25 mg fed,1 (14) n (%)
same,↑ LDL cholesterol Grade 3 (laboratory abnormality),single dose 1.25 mg fed,0 n (%)
same,↑ Lipase Grade 2 (laboratory abnormality),single dose 1.25 mg fed,0 n (%)
same,↑ Pancreatic amylase Grade 2 (laboratory abnormality),single dose 1.25 mg fed,0 n (%)
same,↑ Potassium Grade 2 (laboratory abnormality),single dose 1.25 mg fed,0 n (%)
same,↑ Sodium Grade 2 (laboratory abnormality),single dose 1.25 mg fed,0 n (%)
same,↑ Triglycerides Grade 2 (laboratory abnormality),single dose 1.25 mg fed,1 (14) n (%)
same,↑ Triglycerides Grade 3 (laboratory abnormality),single dose 1.25 mg fed,0 n (%)
same,↓ Bicarbonate Grade 2 (laboratory abnormality),single dose 1.25 mg fed,0 n (%)
same,↓ GFR Grade 2 (laboratory abnormality),single dose 1.25 mg fed,0 n (%)
same,↓ Lymphocytes Grade 2 (laboratory abnormality),single dose 1.25 mg fed,0 n (%)
same,↓ Lymphocytes Grade 4 (laboratory abnormality),single dose 1.25 mg fed,0 n (%)
same,↓ Neutrophils Grade 2 (laboratory abnormality),single dose 1.25 mg fed,0 n (%)
same,↓ Phosphate Grade 2 (laboratory abnormality),single dose 1.25 mg fed,1 (14) n (%)
same,"subjects with Grade 2 treatment-related AEs (pyrexia, headache and hypertension)",single dose 1.8 mg,2 (33.3%) n (%)
same,subjects with contact dermatitis (AE),single dose 1.8 mg,3 (50.0%) n (%)
same,subjects with grade 1 increase in temperature around 12 hours after dosing,single dose 1.8 mg,Two
same,Any AE (treatment-emergent),single dose 1.8 mg fasted,5 (83) n (%)
same,Back pain Grade 1 (treatment-emergent AE),single dose 1.8 mg fasted,2 (33) n (%)
same,Chills Grade 1 (treatment-emergent AE),single dose 1.8 mg fasted,2 (33) n (%)
same,Contact dermatitis Grade 1 (treatment-emergent AE),single dose 1.8 mg fasted,3 (50) n (%)
same,Dizziness Grade 1 (treatment-emergent AE),single dose 1.8 mg fasted,2 (33) n (%)
same,ECG actual value: Heart rate (bpm) Low,single dose 1.8 mg fasted,0 n (%)
same,ECG actual value: QRS (ms) High,single dose 1.8 mg fasted,0 n (%)
same,ECG actual value: QTcB (ms) ]450; 480],single dose 1.8 mg fasted,0 n (%)
same,ECG actual value: QTcF (ms) ]450; 480],single dose 1.8 mg fasted,0 n (%)
same,ECG change from reference: QTcB (ms) [30; 60],single dose 1.8 mg fasted,1 (16.7%) n (%)
same,ECG change from reference: QTcF (ms) [30; 60],single dose 1.8 mg fasted,0 n (%)
same,Headache Grade 1 (treatment-emergent AE),single dose 1.8 mg fasted,0 n (%)
same,Headache Grade 2 (treatment-emergent AE),single dose 1.8 mg fasted,1 (17) n (%)
same,Hypertension Grade 1 (treatment-emergent AE),single dose 1.8 mg fasted,1 (17) n (%)
same,Hypertension Grade 2 (treatment-emergent AE),single dose 1.8 mg fasted,1 (17) n (%)
same,Myalgia Grade 1 (treatment-emergent AE),single dose 1.8 mg fasted,1 (17) n (%)
same,Oropharyngeal pain Grade 1 (treatment-emergent AE),single dose 1.8 mg fasted,1 (17) n (%)
same,Pyrexia Grade 1 (treatment-emergent AE),single dose 1.8 mg fasted,1 (17) n (%)
same,Pyrexia Grade 2 (treatment-emergent AE),single dose 1.8 mg fasted,1 (17) n (%)
same,URTI Grade 1 (treatment-emergent AE),single dose 1.8 mg fasted,1 (17) n (%)
same,"lab toxicity: Amylase (U/L), upwards, Grade 1",single dose 1.8 mg fasted,1 (16.7%) n (%)
same,"lab toxicity: Amylase (U/L), upwards, Grade 2",single dose 1.8 mg fasted,0 n (%)
same,"lab toxicity: Cholesterol (mmol/L), upwards, Grade 1",single dose 1.8 mg fasted,1 (16.7%) n (%)
same,"lab toxicity: Cholesterol (mmol/L), upwards, Grade 2",single dose 1.8 mg fasted,0 n (%)
same,"lab toxicity: Creatine kinase (U/L), upwards, Grade 1",single dose 1.8 mg fasted,0 n (%)
same,"lab toxicity: Creatine kinase (U/L), upwards, Grade 2",single dose 1.8 mg fasted,1 (16.7%) n (%)
same,"lab toxicity: Creatine kinase (U/L), upwards, Grade 4",single dose 1.8 mg fasted,0 n (%)
same,"lab toxicity: Glucose (mmol/L), upwards, Grade 1",single dose 1.8 mg fasted,0 n (%)
same,"lab toxicity: Glucose (mmol/L), upwards, Grade 2",single dose 1.8 mg fasted,0 n (%)
same,"lab toxicity: LDL cholesterol (mmol/L, calculated), upwards, Grade 1",single dose 1.8 mg fasted,0 n (%)
same,"lab toxicity: LDL cholesterol (mmol/L, calculated), upwards, Grade 2",single dose 1.8 mg fasted,0 n (%)
same,"lab toxicity: LDL cholesterol (mmol/L, calculated), upwards, Grade 3",single dose 1.8 mg fasted,0 n (%)
same,"lab toxicity: Lymphocytes (giga/L), downwards, Grade 2",single dose 1.8 mg fasted,0 n (%)
same,"lab toxicity: Lymphocytes (giga/L), downwards, Grade 4",single dose 1.8 mg fasted,2 (33.3%) n (%)
same,"lab toxicity: Neutrophils, segmented (giga/L), downwards, Grade 1",single dose 1.8 mg fasted,0 n (%)
same,"lab toxicity: Neutrophils, segmented (giga/L), downwards, Grade 2",single dose 1.8 mg fasted,1 (16.7%) n (%)
same,"lab toxicity: Platelets (giga/L), downwards, Grade 1",single dose 1.8 mg fasted,2 (33.3%) n (%)
same,"lab toxicity: Sodium (mmol/L), upwards, Grade 1",single dose 1.8 mg fasted,2 (33.3%) n (%)
same,"lab toxicity: Sodium (mmol/L), upwards, Grade 2",single dose 1.8 mg fasted,1 (16.7%) n (%)
same,"lab toxicity: Triglycerides (mmol/L), upwards, Grade 1",single dose 1.8 mg fasted,5 (83.3%) n (%)
same,"lab toxicity: Triglycerides (mmol/L), upwards, Grade 2",single dose 1.8 mg fasted,0 n (%)
same,"lab toxicity: Triglycerides (mmol/L), upwards, Grade 3",single dose 1.8 mg fasted,1 (16.7%) n (%)
same,"lab toxicity: Urate (μmol/L), upwards, Grade 1",single dose 1.8 mg fasted,1 (16.7%) n (%)
same,subjects with at least one AE,single dose 1.8 mg fasted,5 (83.3%) n (%)
same,subjects with at least one AE for which any study drug or study was permanently stopped,single dose 1.8 mg fasted,0 n (%)
same,subjects with at least one AE for which any study drug or study was temporarily stopped,single dose 1.8 mg fasted,0 n (%)
same,subjects with at least one AE possibly related to any study drug,single dose 1.8 mg fasted,1 (16.7%) n (%)
same,"subjects with at least one AE possibly, probably or very likely related to any study drug",single dose 1.8 mg fasted,2 (33.3%) n (%)
same,subjects with at least one AE probably related to any study drug,single dose 1.8 mg fasted,2 (33.3%) n (%)
same,subjects with at least one SAE,single dose 1.8 mg fasted,0 n (%)
same,subjects with at least one fatal AE,single dose 1.8 mg fasted,0 n (%)
same,subjects with at least one grade 1 AE,single dose 1.8 mg fasted,3 (50.0%) n (%)
same,subjects with at least one grade 2 AE,single dose 1.8 mg fasted,2 (33.3%) n (%)
same,subjects with at least one grade 3 or 4 AE,single dose 1.8 mg fasted,0 n (%)
same,subjects with fever and flu-like symptoms (flu-like AEs and lymphopenia),single dose 1.8 mg fasted,2 and 2/6
same,subjects with high VLDL cholesterol levels (non-graded),single dose 1.8 mg fasted,4 (66.7%) n (%)
same,subjects with high values for segmented neutrophils/leukocytes (non-graded),single dose 1.8 mg fasted,4 (66.7%) n (%)
same,treatment-related AE: Any AE,single dose 1.8 mg fasted,2 (33.3%) n (%)
same,treatment-related AE: Chills,single dose 1.8 mg fasted,2 (33.3%) n (%)
same,treatment-related AE: Dizziness,single dose 1.8 mg fasted,2 (33.3%) n (%)
same,treatment-related AE: General disorders and administration site conditions,single dose 1.8 mg fasted,2 (33.3%) n (%)
same,treatment-related AE: Headache,single dose 1.8 mg fasted,1 (16.7%) n (%)
same,treatment-related AE: Hypertension,single dose 1.8 mg fasted,2 (33.3%) n (%)
same,treatment-related AE: Myalgia,single dose 1.8 mg fasted,1 (16.7%) n (%)
same,treatment-related AE: Nervous system disorders,single dose 1.8 mg fasted,2 (33.3%) n (%)
same,treatment-related AE: Oropharyngeal pain,single dose 1.8 mg fasted,1 (16.7%) n (%)
same,treatment-related AE: Pyrexia,single dose 1.8 mg fasted,2 (33.3%) n (%)
same,"treatment-related AE: Respiratory, thoracic and mediastinal disorders",single dose 1.8 mg fasted,1 (16.7%) n (%)
same,treatment-related AE: Vascular disorder,single dose 1.8 mg fasted,2 (33.3%) n (%)
same,vital signs: Respiratory rate (brpm) Grade 1,single dose 1.8 mg fasted,2 (33.3%) n (%)
same,vital signs: Respiratory rate (brpm) Grade 2,single dose 1.8 mg fasted,1 (16.7%) n (%)
same,vital signs: SaO2 (%) 90% to <95%,single dose 1.8 mg fasted,0 n (%)
same,vital signs: SaO2 (%) 95% to <98%,single dose 1.8 mg fasted,2 (33.3%) n (%)
same,vital signs: Standing DBP (mmHg) Grade 1,single dose 1.8 mg fasted,3 (50.0%) n (%)
same,vital signs: Standing DBP (mmHg) Grade 2,single dose 1.8 mg fasted,1 (16.7%) n (%)
same,vital signs: Standing DBP (mmHg) Grade 3,single dose 1.8 mg fasted,1 (16.7%) n (%)
same,vital signs: Standing DBP (mmHg) Low,single dose 1.8 mg fasted,0 n (%)
same,vital signs: Standing SBP (mmHg) Grade 1,single dose 1.8 mg fasted,1 (16.7%) n (%)
same,vital signs: Standing SBP (mmHg) Low,single dose 1.8 mg fasted,0 n (%)
same,vital signs: Standing pulse (bpm) High,single dose 1.8 mg fasted,0 n (%)
same,vital signs: Standing pulse (bpm) Low,single dose 1.8 mg fasted,0 n (%)
same,vital signs: Supine DBP (mmHg) Grade 1,single dose 1.8 mg fasted,1 (16.7%) n (%)
same,vital signs: Supine DBP (mmHg) Low,single dose 1.8 mg fasted,0 n (%)
same,vital signs: Supine SBP (mmHg) Grade 1,single dose 1.8 mg fasted,1 (16.7%) n (%)
same,vital signs: Supine SBP (mmHg) Grade 2,single dose 1.8 mg fasted,1 (16.7%) n (%)
same,vital signs: Supine SBP (mmHg) Low,single dose 1.8 mg fasted,0 n (%)
same,vital signs: Supine pulse (bpm) Low,single dose 1.8 mg fasted,1 (16.7%) n (%)
same,↑ AST Grade 3 (laboratory abnormality),single dose 1.8 mg fasted,0 n (%)
same,↑ Amylase Grade 2 (laboratory abnormality),single dose 1.8 mg fasted,0 n (%)
same,↑ Cholesterol Grade 2 (laboratory abnormality),single dose 1.8 mg fasted,1/5
same,↑ Creatine kinase Grade 2 (laboratory abnormality),single dose 1.8 mg fasted,1 n (%)
same,↑ Creatine kinase Grade 4 (laboratory abnormality),single dose 1.8 mg fasted,0 n (%)
same,↑ Glucose Grade 2 (laboratory abnormality),single dose 1.8 mg fasted,0 n (%)
same,↑ LDL cholesterol Grade 2 (laboratory abnormality),single dose 1.8 mg fasted,0 n (%)
same,↑ LDL cholesterol Grade 3 (laboratory abnormality),single dose 1.8 mg fasted,0 n (%)
same,↑ Lipase Grade 2 (laboratory abnormality),single dose 1.8 mg fasted,1/5
same,↑ Pancreatic amylase Grade 2 (laboratory abnormality),single dose 1.8 mg fasted,1/2
same,↑ Potassium Grade 2 (laboratory abnormality),single dose 1.8 mg fasted,1/5
same,↑ Sodium Grade 2 (laboratory abnormality),single dose 1.8 mg fasted,1 n (%)
same,↑ Triglycerides Grade 2 (laboratory abnormality),single dose 1.8 mg fasted,0 n (%)
same,↑ Triglycerides Grade 3 (laboratory abnormality),single dose 1.8 mg fasted,1 n (%)
same,↓ Bicarbonate Grade 2 (laboratory abnormality),single dose 1.8 mg fasted,1 n (%)
same,↓ GFR Grade 2 (laboratory abnormality),single dose 1.8 mg fasted,0 n (%)
same,↓ Lymphocytes Grade 2 (laboratory abnormality),single dose 1.8 mg fasted,0 n (%)
same,↓ Lymphocytes Grade 4 (laboratory abnormality),single dose 1.8 mg fasted,2 n (%)
same,↓ Neutrophils Grade 2 (laboratory abnormality),single dose 1.8 mg fasted,1 n (%)
same,↓ Phosphate Grade 2 (laboratory abnormality),single dose 1.8 mg fasted,0 n (%)
same,"lab toxicity: GFR from creatinine adjusted for BSA (mL/s/1.73m^2), downwards, Grade 2","single dose 1.8 mg fasted, n = 1 with data",0 n (%)
same,safety and tolerability,single oral doses of 0.2-1.8 mg,well tolerated with no major safety concerns; also recorded: generally considered safe and well tolerated

# Source: patent US12263172B2, “Toll-like receptor agonists for use in the treatment of hepatitis b” (priority 2019, dated 2025)
